# Assay results reported in patent US11603546B2, “Method for preparing modified starch and use thereof” (Qilu University of Technology, priority 2020, dated 2023).
# Marks after values point to notes of the source that are not given here.
# Assays:
# [1] = tested on: mice with type II diabetes (STZ injection plus high-glucose-high-fat diet); test: Type II diabetes mouse model: HE staining of liver sections; type: in vivo, Kunming strain mice; details: diabetic mice, intervention groups (FIGS. 9 to 13)
# Excerpt: Fifty mice were pregrouped and labeled. In the experiment, type II diabetes models were established by streptozotocin (STZ) injection plus induction by high-glucose-high-fat diet. […] The mice were randomized into five groups of 10 animals: normal group, diabetic control group, glimepiride group, RS group, and modified starch+GSPAs group; before modeling, the mice were weighed.
# The normal group was fed with normal diet for three weeks, while the remaining four groups were fed with high-glucose-high-fat diet for three weeks; then, the animals were deprived of food hut not water for 12 h; […] (which was prepared with 0.1 mol/L citric acid-sodium citrate buffer solution [pH 4.4 (4.2-4.5)] at a low temperature) was prepared when needed, and was injected intraperitoneally at a single dose of 50 mg/kg (0.5 mg/10 g) of body weight within 30 min; the mice in the normal group were given isodose citric acid-sodium citrate buffer solution and injected at a dose of 50 mg/kg every three days, during which the mice were fed with high-glucose-high-fat diet. After 72 h, the mice were deprived of food but not water for 12 h, and blood was collected from the tail vein to test the fasting blood glucose (FBG); the mice with FBG≥12 mmol/1, with obesity and polyuria were considered as the criteria for successful modeling. […]
# [2] = tested on: mice with type II diabetes (STZ injection plus high-glucose-high-fat diet); test: Type II diabetes mouse model: TC, TG, HDL-C, LDL-C; type: in vivo, Kunming strain mice; details: diabetic mice, gavage once daily, four weeks
# Excerpt: Fifty mice were pregrouped and labeled. In the experiment, type II diabetes models were established by streptozotocin (STZ) injection plus induction by high-glucose-high-fat diet. […] The mice were randomized into five groups of 10 animals: normal group, diabetic control group, glimepiride group, RS group, and modified starch+GSPAs group; before modeling, the mice were weighed. […] The normal group was fed with normal diet for three weeks, while the remaining four groups were fed with high-glucose-high-fat diet for three weeks; then, the animals were deprived of food hut not water for 12 h; […] (which was prepared with 0.1 mol/L citric acid-sodium citrate buffer solution [pH 4.4 (4.2-4.5)] at a low temperature) was prepared when needed, and was injected intraperitoneally at a single dose of 50 mg/kg (0.5 mg/10 g) of body weight within 30 min; the mice in the normal group were given isodose citric acid-sodium citrate buffer solution and injected at a dose of 50 mg/kg every three days, during which the mice were fed with high-glucose-high-fat diet. After 72 h, the mice were deprived of food but not water for 12 h, and blood was collected from the tail vein to test the fasting blood glucose (FBG); the mice with FBG≥12 mmol/1, with obesity and polyuria were considered as the criteria for successful modeling. Ten normal and healthy mice were assigned to the normal group; the remaining successful modeled mice with type II diabetes were grouped into four groups of 10 animals according to the blood glucose level; the test period was four weeks. Specific groups are listed in Table 2: bw represents body weight. [table] Instructions for gavage dosing: The mice were administered by gavage once daily, in a volume of 0.4 mL. Also, total cholesterol (TC), triglyceride (TG), and low density lipoprotein cholesterol (LDL-C) were tested for diabetic mice, as shown in Table 3.
smiles,measurement,setting,value
"CCC1=C(C)CN(C(=O)NCCc2ccc(S(=O)(=O)NC(=O)N[C@H]3CC[C@H](C)CC3)cc2)C1=O [Glimepiride, glimepiride]",HE staining of liver sections,[1],improve symptoms of disordered liver cells and massive inflammatory cell infiltration
same,High density lipid cholesterol (HDL-C),[2],2.26 ± 0.31^a mmol/L
same,LDL-C,[2],0.65 ± 0.17^b mmol/L
same,TC,[2],3.16 ± 0.37^b mmol/L
same,TG,[2],1.06 ± 0.09^b mmol/L
